Results as given in article PMC9481570, “A small molecule antagonist of SMN disrupts the interaction between SMN and RNAP II” (Nature Communications, 2022).
Read-outs that look alike come from different tables or passages of the source.

Experiments:
SND1 = target: T1, SND1 (Homo sapiens, UniProt Q7KZF4); assay: ITC binding to SND1
T1 construct: SND1 (aa 650–910); His (N, cleaved yes); made in house; host or cells: E. coli BL21 (DE3) Codon plus RIL
T1 sequence (Q7KZF4 650-910): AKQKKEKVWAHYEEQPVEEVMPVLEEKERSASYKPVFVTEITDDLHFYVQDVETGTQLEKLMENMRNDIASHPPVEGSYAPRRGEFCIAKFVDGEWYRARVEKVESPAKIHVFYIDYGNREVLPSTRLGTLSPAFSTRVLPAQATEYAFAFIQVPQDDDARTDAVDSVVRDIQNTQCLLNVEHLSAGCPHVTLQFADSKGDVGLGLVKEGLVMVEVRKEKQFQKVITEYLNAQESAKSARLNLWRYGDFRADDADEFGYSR
From the text: The coding DNA fragments of following Tudor domains were cloned into pET28-MHL vector: SMN (aa 82–147), UHRF1 (aa 126–285), SMNDC1 (aa 53–130), TDRD3 (aa 554–611), SND1 (aa 650–910), TDRD2 (aa 327–420), FXR1 (aa 2–132), PHF1 (aa 28–87), SGF29 (aa 115–293), JMJD2A (aa 897–1101), 53BP1 (aa 1483–1606), SETDB1 (aa 190–410), LBR (aa 1–67), ZGPAT (aa 120–271). The coding regions of chromodomain of CBX7 (aa 8–62), PWWP domain of DNMT3A (aa 275–417), WD40 repeats of WDR5 (aa 24–334) and CW domain of ZCWPW2 (aa 21–78) were also subcloned into pET28-MHL vector to generate N-terminally His-tagged fusion protein. The MBT repeats of L3MBTL1 (aa 200–522) and L3MBTL2 (aa 170–625) were subcloned into pET28GST-LIC vector to generate N-terminally GST-His-tagged fusion protein. All the plasmids were generated by ligase independent cloning (Vazyme Biotech, C112 or ABclonal Technology, RK21020). […] The proteins were further purified by Superdex75 or Superdex200 gel-filtration column (GE Healthcare) in a buffer containing 20 mM Tris-HCl, pH 7.5, 150 mM NaCl and 1 mM DTT. For crystallization experiments, purified proteins were concentrated to 18 mg/mL for SMN, 23 mg/mL for UHRF1 and 10 mg/mL for TDRD3 in the gel-filtration buffer. […] The molecular weight of all protein samples was measured by mass spectrometry.
For the ITC measurement, the concentrated proteins were diluted into 20 mM Tris-HCl, pH 7.5, 150 mM NaCl (ITC buffer); the lyophilized compounds were dissolved in the same buffer, and the pH value was adjusted by adding 2 M NaOH or 2 M HCl. […] Compound concentrations were calculated from the mass and the volume of the solvent. […] The protein with a concentration of 50–100 μM was placed in the cell chamber, and the compounds with a concentration of 0.5–2 mM in syringe was injected in 25, 20, or 20 successive injections with a spacing of 180, 150, or 120 s for VP-ITC, iTC-200, or Nano-ITC, respectively, as previously described[30]–[32]. iTC-200 or Nano-ITC data were consistent with those from the VP-ITC instrument, based on ITC results of SMN-compound 1 detected by using all the instruments. […]

PHF1 = target: T2, PHF1 (Homo sapiens, UniProt O43189); assay: ITC binding to PHF1; details: Fig. 1c
T2 construct: PHF1 (aa 28–87); His (N, cleaved yes); made in house; host or cells: E. coli BL21 (DE3) Codon plus RIL
T2 sequence (O43189 28-87): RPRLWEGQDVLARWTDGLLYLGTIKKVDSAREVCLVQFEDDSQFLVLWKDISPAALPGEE
From the text: (§1) The coding DNA fragments of following Tudor domains were cloned into pET28-MHL vector: SMN (aa 82–147), UHRF1 (aa 126–285), SMNDC1 (aa 53–130), TDRD3 (aa 554–611), SND1 (aa 650–910), TDRD2 (aa 327–420), FXR1 (aa 2–132), PHF1 (aa 28–87), SGF29 (aa 115–293), JMJD2A (aa 897–1101), 53BP1 (aa 1483–1606), SETDB1 (aa 190–410), LBR (aa 1–67), ZGPAT (aa 120–271). The coding regions of chromodomain of CBX7 (aa 8–62), PWWP domain of DNMT3A (aa 275–417), WD40 repeats of WDR5 (aa 24–334) and CW domain of ZCWPW2 (aa 21–78) were also subcloned into pET28-MHL vector to generate N-terminally His-tagged fusion protein. The MBT repeats of L3MBTL1 (aa 200–522) and L3MBTL2 (aa 170–625) were subcloned into pET28GST-LIC vector to generate N-terminally GST-His-tagged fusion protein. All the plasmids were generated by ligase independent cloning (Vazyme Biotech, C112 or ABclonal Technology, RK21020). […] The molecular weight of all protein samples was measured by mass spectrometry.
(§2) For the ITC measurement, the concentrated proteins were diluted into 20 mM Tris-HCl, pH 7.5, 150 mM NaCl (ITC buffer); the lyophilized compounds were dissolved in the same buffer, and the pH value was adjusted by adding 2 M NaOH or 2 M HCl. […] Compound concentrations were calculated from the mass and the volume of the solvent. […]

SMN_Y130A = target: T3, SMN_Y130A (Homo sapiens, UniProt Q16637, Y130A); assay: ITC binding to SMN Tudor mutant Y130A; details: Fig. 3d
T3 construct: cloned into pET28-MHL vector: SMN (aa 82–147); His (N, cleaved yes); made in house; host or cells: E. coli BL21 (DE3) Codon plus RIL
T3 sequence (Q16637 82-147 Y130A): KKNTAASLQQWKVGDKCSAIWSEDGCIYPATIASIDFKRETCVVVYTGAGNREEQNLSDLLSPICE
From the text: as §1, §2

JMJD2A = target: T4, JMJD2A (Homo sapiens, UniProt O75164); assay: ITC binding to JMJD2A; details: Fig. 1c
T4 construct: JMJD2A (aa 897–1101); His (N, cleaved yes); made in house; host or cells: E. coli BL21 (DE3) Codon plus RIL
T4 sequence (O75164 897-1064): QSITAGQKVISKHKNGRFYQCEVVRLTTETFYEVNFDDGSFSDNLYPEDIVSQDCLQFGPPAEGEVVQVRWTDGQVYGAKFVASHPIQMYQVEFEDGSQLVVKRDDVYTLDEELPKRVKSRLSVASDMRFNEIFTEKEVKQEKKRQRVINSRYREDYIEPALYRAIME
From the text: as §1, §2

SMN_N132D = target: T5, SMN_N132D (Homo sapiens, UniProt Q16637, N132D); assay: ITC binding to SMN Tudor mutant N132D; details: Fig. 3d
T5 construct: cloned into pET28-MHL vector: SMN (aa 82–147); His (N, cleaved yes); made in house; host or cells: E. coli BL21 (DE3) Codon plus RIL
T5 sequence (Q16637 82-147 N132D): as the sequence (Q16637 82-147 Y130A) above, with A49Y, N51D counted along it
From the text: as §1, §2

SMN_Y127A = target: T6, SMN_Y127A (Homo sapiens, UniProt Q16637, Y127A); assay: ITC binding to SMN Tudor mutant Y127A; details: Fig. 3d
T6 construct: cloned into pET28-MHL vector: SMN (aa 82–147); His (N, cleaved yes); made in house; host or cells: E. coli BL21 (DE3) Codon plus RIL
T6 sequence (Q16637 82-147 Y127A): as the sequence (Q16637 82-147 Y130A) above, with Y46A, A49Y counted along it
From the text: as §1, §2

L3MBTL1 (MBT) = target: T7, L3MBTL1 (MBT) (Homo sapiens, UniProt Q9Y468); assay: ITC binding to MBT repeats of L3MBTL1
T7 construct: L3MBTL1 (aa 200–522); GST-His (N, cleaved yes); made in house; host or cells: E. coli BL21 (DE3) Codon plus RIL
T7 sequence (Q9Y468 268-590): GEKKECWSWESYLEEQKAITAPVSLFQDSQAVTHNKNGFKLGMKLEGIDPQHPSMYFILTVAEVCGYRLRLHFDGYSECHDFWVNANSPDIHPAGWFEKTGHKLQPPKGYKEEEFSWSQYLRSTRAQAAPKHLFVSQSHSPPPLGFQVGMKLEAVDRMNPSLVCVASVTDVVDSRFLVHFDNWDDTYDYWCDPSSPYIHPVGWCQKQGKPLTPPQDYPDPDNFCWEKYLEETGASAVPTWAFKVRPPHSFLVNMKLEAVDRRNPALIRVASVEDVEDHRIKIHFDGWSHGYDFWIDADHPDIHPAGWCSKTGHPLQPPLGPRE
From the text: as §1, §2

WDR5 (WD40) = target: T8, WDR5 (WD40) (Homo sapiens, UniProt P61964); assay: ITC binding to WD40 repeats of WDR5; details: Fig. 1c
T8 construct: WDR5 (aa 24–334); His (N, cleaved yes); made in house; host or cells: E. coli BL21 (DE3) Codon plus RIL
From the text: as §1, §2

53BP1 = target: T9, 53BP1 (Homo sapiens, UniProt Q12888); assay: ITC binding to 53BP1; details: Fig. 1c
T9 construct: 53BP1 (aa 1483–1606); His (N, cleaved yes); made in house; host or cells: E. coli BL21 (DE3) Codon plus RIL
T9 sequence (Q12888 1483-1606): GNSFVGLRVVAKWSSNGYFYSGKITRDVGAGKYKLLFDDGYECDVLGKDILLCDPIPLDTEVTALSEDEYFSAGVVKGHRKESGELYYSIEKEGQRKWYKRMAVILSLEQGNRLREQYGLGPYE
From the text: as §1, §2

CBX7 (CD) = target: T10, CBX7 (CD) (Homo sapiens, UniProt O95931); assay: ITC binding to chromodomain of CBX7; details: Fig. 1c
T10 construct: CBX7 (aa 8–62); His (N, cleaved yes); made in house; host or cells: E. coli BL21 (DE3) Codon plus RIL
T10 sequence (O95931 8-62): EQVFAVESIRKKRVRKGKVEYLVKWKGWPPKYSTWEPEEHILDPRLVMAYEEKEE
From the text: as §1, §2

SMILES: Cn1c2c(c(=N)c3c1CCC3)CCC2 [Compound 1, 4-methyl-2,3,4,5,6,7-hexahydrodicyclopenta[b,e]pyridin-8(1H)-imine]
- Kd (SND1; ITC, Fig. 1c, read-out: Kd (SND1)): > 100 µM
- Kd (SND1; Supplementary Fig. 11c, VP-ITC, read-out: Kd, ITC binding curve, SND1): 244 ± 51 µM
- ITC binding curve, SND1 (in words) (SND1; Supplementary Fig. 2d): Weak binding
- Kd (PHF1): > 244 µM
- Kd (SMN_Y130A): > 244 µM
- Kd (JMJD2A): > 244 µM
- Kd (SMN_N132D): 3.3 ± 0.1 µM
- Kd (SMN_Y127A): > 100 µM
- Kd (L3MBTL1 (MBT); ITC, Fig. 1c): > 100 µM
- ITC binding curve, MBT repeats of L3MBTL1 (in words) (L3MBTL1 (MBT); Supplementary Fig. 2f): Weak binding
- Kd (WDR5 (WD40)): > 244 µM
- Kd (53BP1): > 244 µM
- Kd (CBX7 (CD)): > 244 µM
